Where two headings read alike, the source gives them in different places. One block for each compound: values may come before it.
Key:
Male Wistar albino rats = test: Formalin footpad test (FT); format: in vivo, rat; details: PO, statistically significant decrease in late-phase pain behaviour versus vehicle
Description: a. The Formalin Footpad Test (FT):
The FT model was used to test invention compounds for pain alleviating properties. The model produces a biphasic response in a test animal that results from a change in pain intensity over time. The FT model utilizes an injection of dilute formalin into the hindpaw of a rodent, which produces high intensity acute pain behaviors which are measured for the first 10 minutes post formalin injection (early phase responding). High intensity acute pain behaviors include rapid licking or biting of the injected hindpaw. The second phase is a prolonged period of lower intensity pain behaviors (late phase responding) which are measured from 11 to 45 minutes post-formalin injection.
Male Wistar albino rats (Harlan Sprague-Dawley Labs), weighing approximately 100 g at the time of testing, were used. Animals were group-housed and acclimated to the housing facility for 1 week prior to testing. Animals were maintained on a 12-hour/12-hour light/dark cycle and fed block rodent chow. From 4 to 8 animals were randomly assigned to either a vehicle-only dose group or a vehicle-plus invention compound treatment group on the day of testing.
The testing apparatus was a 16″×8″ box divided into two 8″×8″ testing chambers. Each testing chamber comprised a floor and 3 walls made of clear plastic mirrors, and a fourth wall which was clear plastic that allowed observation of animal behavior. The top of each chamber was covered with a metal screen during testing to prevent animals from climbing out of the chamber. Two animals were tested simultaneously in the adjoining boxes, but animals were unable to observe one another.
Animals were weighed and placed into holding cages (2 animals per cage) in the testing room prior to dosing. Following approximately 30 minutes of acclimation to the testing room, each pair of animals was administered orally (PO) by gavage a mixture of invention compound plus vehicle or vehicle alone. The treated animals were then placed in individual test chambers and allowed to acclimate to the chambers for at least 20 minutes. Then 50 μL of a 2.5% solution of formalin in vehicle was injected subcutaneously (SC) in the plantar surface of the left hindpaw from 30 to 120 minutes after administration of the invention compound. A session timer was started following the formalin injection, and the amount of time the animal spent licking or biting the injected paw was clocked with a hand-held stopwatch. The cumulative time spent engaging in a pain response was manually recorded at 5-minute intervals for 45 minutes post formalin injection. Early phase responding included Minutes 0 to 10, and late phase responding included Minutes 11 to 45. At the end of the testing period, animals were sacrificed using carbon dioxide. […]

[1] = target: T1, NR1A/NR2B NMDA receptor subtype (Rattus norvegicus, UniProt P35439+Q00960); test: [3H]Ifenprodil binding assay (IFPNR), rat forebrain membranes
T1 construct: buffy coat membrane fraction was prepared from frozen adult rat forebrains; tissue Zivic-Miller Laboratories, Inc; host or cells: adult rat forebrain membranes
Description: b. [^3H]Ifenprodil Binding Assay (IFPNR) Protocol:
Ifenprodil, [phenyl-^3H]-(specific activity, 66.2 Ci/mmol) was purchased from Dupont NEN Research Products (Boston, Mass.). Ifenprodil tartrate was purchased from Research Biochemicals International (Natick, Mass.). HEPES, glutamate and glycine were purchased from Sigma Chemical Co. (St. Louis, Mo.).
All buffers and reagents used in assay incubations or to dissolve drugs were prepared using water purified through a Milli-Q reverse osmosis system (Millipore Corp., Bedford, Mass.) and treated with UV emissions. Prior to use in the assays buffers were further filtered through a sterile Coming filtration unit (Coming Glass Works, Coming, N.Y.) containing a 0.2 micron filter. Buffer used to rinse the membranes on the assay filters was prepared with purified water, but was not refiltered and was stored no longer than 5 days. Stock solutions of the drugs (usually 10 mM) were dissolved in 20 mM HEPES-KOH buffer pH 7.4 (assay buffer) with the addition of 1 to 5 μL of glacial AcOH, if needed to keep them in solution. Eliprodil was used as the reference NMDA antagonist. A stock solution of eliprodil was prepared, and was buffered with the addition of 10% DMSO. All subsequent dilutions from the stock solution were made in buffer.
An extensively washed buffy coat membrane fraction was prepared from frozen adult rat forebrains (Zivic-Miller Laboratories, Inc., Zelienople, Pa.) as described by Coughenour L. L.; Cordon, J. J., J. Pharmacol. Exp. Ther., 1997;280:584-592, and stored at −80° C. On the day of the assay, pellets of the frozen membrane fractions were resuspended in 35 mL of assay buffer at pH 7.4 using a POLYTRON (Kinematica A. G. Company, Littau, Switzerland) mixer at setting 6. After incubation at 37° C. for 30 minutes in a shaking water bath, the homogenate was centrifuged 40,000×g for 10 minutes at 4° C. The pellets were resuspended in fresh buffer and centrifuged 3 more times before final suspension for use in the assay.
(iii) [^3H]Ifenprodil Binding protocol:
Triplicate incubations were carried out in a volume of 0.5 mL in 1.3 mL polypropylene tubes (Marsh Biomedical Products Inc, Rochester, N.Y.) for 2 hours at room temperature. Incubations contained invention compounds, membranes (100-200 μg protein) and 4 nM [^3H]-ifenprodil in 20 mM HEPES-KOH buffer, pH 7.4 (assay buffer). Assays were started by addition of the membranes. Bound radioligand was separated by filtration under reduced pressure using a TOMTEC Mach II, 96-well cell harvester (Tomtec Inc, Orange, Conn.). Filtration was through Whatman GF/B glass fiber filters (Whatman Ltd., Maidstone, England), which had been soaked for at least 15 minutes in 0.3% polyethylenimine and allowed to air dry. The filters were rinsed with 3 mL of ice cold assay buffer within 6 seconds. Air was allowed to pass through the filters for an additional 10 seconds to remove residual moisture. The filter mat was supported on a cold (−20° C.) TEFLON (E. I. Du Pont de Nemours and Company, Wilmington, Del.) coated support, and filters from individual wells were separated and placed in Mini Poly-Q vials (Becklman Instruments Inc, Fullerton, Calif.) and filled with 4 mL of scintillation cocktail (Beckman Ready Protein^+). Radioactivity retained on the filter was determined by liquid scintillation spectrophotometry. Nonspecific binding was defined as the binding in the presence of […] ifenprodil. Ninety percent of the total binding of ifenprodil was specific binding at the NR1A/NR2B NMDA receptor subtype active site (as opposed to binding at a remote site).
Binding curves were statistically analyzed for a best 1- or 2-site competition fit using GRAPHPAD PRISM software (GraphPad Software Inc, San Diego, Calif.), a computer program used to analyze and graph scientific data. The normalized data was fitted by nonweighted nonlinear regression to either [formula]
Control data was entered as 100%, and no parameters were constrained. […]

[2] = Table 2, 4 nM [3H]-ifenprodil, read-out: IFPNR IC50 μm
[3] = Table 3, 4 nM [3H]-ifenprodil, read-out: IFPNR IC50
[4] = Table 4, 4 nM [3H]-ifenprodil, read-out: IFPNR IC50

T1 sequence (Q00960 27-1482, other chains not shown): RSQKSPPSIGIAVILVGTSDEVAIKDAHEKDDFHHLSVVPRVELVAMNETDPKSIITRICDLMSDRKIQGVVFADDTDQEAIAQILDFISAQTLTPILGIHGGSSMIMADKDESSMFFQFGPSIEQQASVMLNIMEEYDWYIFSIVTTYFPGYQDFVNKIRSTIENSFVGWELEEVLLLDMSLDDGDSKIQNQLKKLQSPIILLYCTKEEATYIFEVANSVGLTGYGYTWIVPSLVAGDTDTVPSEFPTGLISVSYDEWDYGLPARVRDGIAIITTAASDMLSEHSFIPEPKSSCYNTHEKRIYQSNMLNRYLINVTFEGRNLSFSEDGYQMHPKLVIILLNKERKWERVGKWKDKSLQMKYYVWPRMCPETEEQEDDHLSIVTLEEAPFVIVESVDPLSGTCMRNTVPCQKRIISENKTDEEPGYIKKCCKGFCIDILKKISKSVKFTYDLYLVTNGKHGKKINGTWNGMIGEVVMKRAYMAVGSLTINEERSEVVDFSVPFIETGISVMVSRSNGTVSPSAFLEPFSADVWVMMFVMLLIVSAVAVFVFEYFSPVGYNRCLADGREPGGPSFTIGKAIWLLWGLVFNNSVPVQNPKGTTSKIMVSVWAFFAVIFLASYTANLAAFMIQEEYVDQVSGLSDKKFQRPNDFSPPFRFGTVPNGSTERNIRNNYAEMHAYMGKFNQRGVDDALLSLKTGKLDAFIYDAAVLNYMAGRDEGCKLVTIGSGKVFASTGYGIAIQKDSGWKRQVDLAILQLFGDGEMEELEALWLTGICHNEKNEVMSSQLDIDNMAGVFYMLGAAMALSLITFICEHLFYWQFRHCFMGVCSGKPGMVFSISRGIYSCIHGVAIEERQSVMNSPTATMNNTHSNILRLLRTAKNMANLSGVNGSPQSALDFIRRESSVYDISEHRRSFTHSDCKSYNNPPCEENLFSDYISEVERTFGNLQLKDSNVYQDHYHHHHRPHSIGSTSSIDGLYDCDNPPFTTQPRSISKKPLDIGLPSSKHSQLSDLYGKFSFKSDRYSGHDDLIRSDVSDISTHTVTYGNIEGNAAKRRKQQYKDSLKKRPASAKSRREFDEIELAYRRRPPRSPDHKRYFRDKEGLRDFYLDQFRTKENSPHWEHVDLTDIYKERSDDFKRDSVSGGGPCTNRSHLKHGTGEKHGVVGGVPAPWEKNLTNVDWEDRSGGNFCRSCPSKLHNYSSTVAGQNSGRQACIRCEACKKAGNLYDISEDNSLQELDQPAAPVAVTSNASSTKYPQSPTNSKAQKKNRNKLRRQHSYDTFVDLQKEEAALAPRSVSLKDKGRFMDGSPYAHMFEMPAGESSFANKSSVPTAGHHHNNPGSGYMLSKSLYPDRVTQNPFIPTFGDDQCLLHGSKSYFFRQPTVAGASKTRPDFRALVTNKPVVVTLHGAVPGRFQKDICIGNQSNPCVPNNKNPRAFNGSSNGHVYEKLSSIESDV

IC50 ([1]; Table 1, 4 nM [3H]-ifenprodil, read-out: IFPNR (IC50 μM)): 0.016 µM
SMILES: O=c1[nH]c2ccc(C3=NOC(CN4CCC(Cc5ccc(F)cc5)CC4)C3)cc2o1 (single isomer, unassigned; (+)) [Example 4a, (+)-6-{5-[4-(4-fluorobenzyl)piperidin-1-ylmethyl]-4,5-dihydroisoxazol-3-yl}-3H-benzoxazol-2-one]
FT (mg/kg), active dose (Male Wistar albino rats; Table 1): <10 mg/kg

IC50 [1, 2]: 0.047 µM
SMILES: O=c1[nH]c2ccc(C3CC(CN4CCC(Cc5ccc(F)cc5)CC4)=NO3)cc2o1 (stereo not shown) [Example 5, 6-{3-[4-(4-Fluorobenzyl)piperidin-1-ylmethyl]-4,5-dihydroisoxazol-5-yl}-3H-benzoxazol-2-one]
FT (mg/kg), active dose (Male Wistar albino rats; Table 2): >30 mg/kg

melting point: 237 to 244 °C
IC50 [1, 2]: 0.499 µM
SMILES: O=c1[nH]c2ccc(-c3cc(CN4CCC(Cc5ccc(F)cc5)CC4)on3)cc2o1 [Example 15, 6-{5-[4-(4-Fluorobenzyl)piperidin-1-ylmethyl]isoxazol-3-yl}-3H-benzoxazol-2-one]

melting point: 210 to 213 °C
IC50 [1, 3]: > 1 µM
SMILES: O=C(C1CC(c2ccc3[nH]c(=O)oc3c2)=NO1)N1CCC(Cc2ccc(F)cc2)CC1 (stereo not shown) [Example 18, 6-{5-[4-(4-Fluorobenzyl)piperidine-1-carbonyl]-4,5-dihydroisoxazol-3-yl}-3H-benzoxazol-2-one]

melting point: 82 to 86 °C
IC50 [1, 2]: 0.011 µM
SMILES: CC1(CN2CCC(Cc3ccc(F)cc3)CC2)CC(c2ccc3[nH]c(=O)oc3c2)=NO1 (stereo not shown) [Example 21, 6-{5-[4-(4-Fluorobenzyl)piperidin-1-ylmethyl]-5-methyl-4,5-dihydroisoxazol-3-yl}-3H-benzoxazol-2-one]

melting point: 188 to 194 °C
IC50 [1, 2]: 0.788 µM
SMILES: O=C(O)C1(CN2CCC(Cc3ccc(F)cc3)CC2)CC(c2ccc3[nH]c(=O)oc3c2)=NO1 (stereo not shown) [Example 22, 5-[4-(4-Fluorobenzyl)piperidin-1-ylmethyl]-3-(2-oxo-2,3-dihydrobenzoxazol-6-yl)-4,5-dihydroisoxazole-5-carboxylic acid]

melting point: 192 to 194 °C
IC50 [1, 4]: 0.059 µM
SMILES: O=c1[nH]c2ccc(C3=NOC(CN4CCC(Oc5ccc(F)cc5)CC4)C3)cc2o1 (stereo not shown) [Example 27, 6-{5-[4-(4-Fluorophenoxy)piperidin-1-ylmethyl]-4,5-dihydroisoxazol-3-yl}-3-H-benzoxazol-2-one]

melting point: 190 to 192 °C
IC50 [1, 4]: 0.018 µM
SMILES: O=c1[nH]c2ccc(C3=NOC(CN4CCC(Sc5ccc(F)cc5)CC4)C3)cc2o1 (stereo not shown) [Example 28, 6-{5-[4-(4-Fluorophenylsulfanyl)piperidin-1-ylmethyl]-4,5-dihydroisoxazol-3-yl}-3H-benzoxazol-2-one]

melting point: 188 to 190 °C
IC50 [1, 4]: 0.759 µM
SMILES: O=C(c1ccc(F)cc1)C1CCN(CC2CC(c3ccc4[nH]c(=O)oc4c3)=NO2)CC1 (stereo not shown) [Example 30, 6-{5-[4-(4-Fluorobenzoyl)piperidin-1-ylmethyl]-4,5-dihydroisoxazol-3-yl}-3H-benzoxazol-2-one]

melting point: 125 to 134 °C
IC50 [1, 4]: > 1 µM
SMILES: CC(O)(c1ccc(F)cc1)C1CCN(CC2CC(c3ccc4[nH]c(=O)oc4c3)=NO2)CC1 (stereo not shown) [Example 32, 6-(5-{4-[1-(4-Fluorophenyl)-1-hydroxyethyl]piperidin-1-ylmethyl}-4,5-dihydroisoxazol-3-yl)-3H-benzoxazol-2-one]

melting point: 131 to 132 °C
IC50 ([1]; Table 5, 4 nM [3H]-ifenprodil, read-out: IFPNR IC50): 0.014 µM
SMILES: Cc1c(C2=NOC(CN3CCC(Cc4ccc(F)cc4)CC3)C2)cc2oc(=O)[nH]c2c1Cl (stereo not shown) [Example 33, 4-Chloro-6-{5-[4-(4-fluorobenzyl)piperidin-1-ylmethyl]-4,5-dihydroisoxazol-3-yl}-5-methyl-3H-benzoxazol-2-one]

melting point: 214 to 217 °C
IC50 [1, 3]: 0.28 µM
SMILES: O=c1[nH]c2ccc(C3=NOC(CN4CCC(c5ccc(F)cc5)CC4)C3)cc2o1 (stereo not shown) [Example 34, -{5-[4-(4-Fluorophenyl)piperidin-1-ylmethyl]-4,5-dihydroisoxazol-3-yl}-3H-benzoxazol-2-one]

SMILES: O=c1[nH]c2ccc(C3=NOC(CN4CCC(O)(c5ccccc5)CC4)C3)cc2o1 (stereo not shown) [Example 35]
melting point: 115 to 118 °C
IC50 [1, 3]: > 1 µM

melting point: 188 to 194 °C
IC50 [1, 3]: > 1 µM
SMILES: O=c1[nH]c2ccc(C3=NOC(CCN4CCC(c5ccc(F)cc5)CC4)C3)cc2o1 (stereo not shown) [Example 36, 6-(5-{2-[4-(4-Fluorophenyl)piperidin-1-yl]ethyl}-4,5-dihydroisoxazol-3-yl)-3H-benzoxazol-2-one]

Source: patent US6642256B2, “Piperidine derivatives as subtype selective N-Methyl-D-Aspartate antagonists” (Warner-Lambert Company LLC, priority 2000, dated 2003)
